Results published in article PMC9103764, “Pilot Study on Acute Effects of Pharmacological Intraperitoneal L-Homoarginine on Homeostasis of Lysine and Other Amino Acids in a Rat Model of Isoprenaline-Induced Takotsubo Cardiomyopathy” (International Journal of Molecular Sciences, 2022).

What was measured:
[1] = Free amino acids by GC-MS in organ homogenates of rats given i.p. hArg (isoprenaline-induced takotsubo model)
[2] = set-up: method as in PMID 24004504; conditions: cited from earlier work
[3] = oral hArg 125 mg/day, cited from earlier work
polyamine catabolism = test: Putrescine:spermidine (PUT/SPD) molar ratio in organ homogenates; conditions: R17; hArg 440 mg/kg i.p.; 14 min; without isoprenaline
arginase = tested on: arginase; set-up: method as in PMID 31028716; conditions: cited from earlier work
[4] = R1, hArg 440 mg/kg i.p., sacrifice 32 min, ISO 50 mg/kg i.p. at 15 min
[5] = R2, hArg 20 mg/kg i.p., sacrifice 64 min, ISO 50 mg/kg i.p. at 15 min
[6] = R3, hArg 20 mg/kg i.p., sacrifice 28 min, ISO 50 mg/kg i.p. at 15 min
[7] = R4, hArg 440 mg/kg i.p., sacrifice 87 min, ISO 50 mg/kg i.p. at 15 min
[8] = R13, hArg 20 mg/kg i.p., sacrifice 126 min, ISO 50 mg/kg i.p. at 15 min
[9] = R14, hArg 220 mg/kg i.p., sacrifice 108 min, ISO 50 mg/kg i.p. at 15 min
[10] = R17, hArg 440 mg/kg i.p., sacrifice 14 min, no ISO
[11] = R18, hArg 20 mg/kg i.p., sacrifice 114 min, ISO 50 mg/kg i.p. at 15 min
[12] = R19, hArg 220 mg/kg i.p., sacrifice 98 min, ISO 50 mg/kg i.p. at 15 min
[13] = hArg treatment, mice, dose-dependent

Q: Which “free Arg concentration, kidney homogenate” value [1, 4] does the source give for `N=C(N)NCCCC[C@H](N)C(=O)O` [hArg, L-homoarginine] here?
A: 365 µM

Q: And the “free Arg concentration, lung homogenate” value [1, 4]?
A: 102 µM

Q: And the “free Lys concentration, kidney homogenate” value [1, 4]?
A: 646 µM

Q: What about the “free Lys concentration, lung homogenate” value [1, 4] of the same molecule?
A: 229 µM

Q: And the “free Arg concentration, heart homogenate” value [1, 5]?
A: 384 µM

Q: And the “free Arg concentration, kidney homogenate” value [1, 5]?
A: 37.4 µM

Q: What about the “free Arg concentration, liver homogenate” value [1, 5] of the same molecule?
A: 124 µM

Q: And the “free Arg concentration, lung homogenate” value [1, 5]?
A: 210 µM

Q: What about the “free Lys concentration, heart homogenate” value [1, 5] of the same molecule?
A: 644 µM

Q: What about the “free Lys concentration, kidney homogenate” value [1, 5] of the same molecule?
A: 96 µM

Q: And the “free Lys concentration, liver homogenate” value [1, 5]?
A: 241 µM

Q: And the “free Lys concentration, lung homogenate” value [1, 5]?
A: 306 µM

Q: And the “free Arg concentration, heart homogenate” value [1, 6]?
A: 575 µM

Q: And the “free Arg concentration, kidney homogenate” value [1, 6]?
A: 60.7 µM

Q: And the “free Arg concentration, liver homogenate” value [1, 6]?
A: 14.3 µM

Q: What about the “free Arg concentration, lung homogenate” value [1, 6] of the same molecule?
A: 7.34 µM

Q: What about the “free Lys concentration, heart homogenate” value [1, 6] of the same molecule?
A: 834 µM

Q: What about the “free Lys concentration, kidney homogenate” value [1, 6] of the same molecule?
A: 173 µM

Q: And the “free Lys concentration, liver homogenate” value [1, 6]?
A: 392 µM

Q: What about the “free Lys concentration, lung homogenate” value [1, 6] of the same molecule?
A: 191 µM

Q: What about the “free Arg concentration, kidney homogenate” value [1, 7] of the same molecule?
A: 73.8 µM

Q: And the “free Arg concentration, liver homogenate” value [1, 7]?
A: 10.3 µM

Q: And the “free Arg concentration, lung homogenate” value [1, 7]?
A: 185 µM

Q: And the “free Lys concentration, kidney homogenate” value [1, 7]?
A: 187 µM

Q: And the “free Lys concentration, liver homogenate” value [1, 7]?
A: 714 µM

Q: What about the “free Lys concentration, lung homogenate” value [1, 7] of the same molecule?
A: 441 µM

Q: And the “free Arg concentration, heart homogenate” value [1, 8]?
A: 75.4 µM

Q: What about the “free Arg concentration, kidney homogenate” value [1, 8] of the same molecule?
A: 370 µM

Q: And the “free Arg concentration, liver homogenate” value [1, 8]?
A: 21.2 µM

Q: And the “free Arg concentration, lung homogenate” value [1, 8]?
A: 261 µM

Q: And the “free Lys concentration, heart homogenate” value [1, 8]?
A: 151 µM

Q: What about the “free Lys concentration, kidney homogenate” value [1, 8] of the same molecule?
A: 602 µM

Q: And the “free Lys concentration, liver homogenate” value [1, 8]?
A: 492 µM

Q: What about the “free Lys concentration, lung homogenate” value [1, 8] of the same molecule?
A: 471 µM

Q: And the “free Arg concentration, heart homogenate” value [1, 9]?
A: 91.2 µM

Q: And the “free Arg concentration, kidney homogenate” value [1, 9]?
A: 733 µM

Q: And the “free Arg concentration, liver homogenate” value [1, 9]?
A: 15.9 µM

Q: What about the “free Arg concentration, lung homogenate” value [1, 9] of the same molecule?
A: 171 µM

Q: What about the “free Lys concentration, heart homogenate” value [1, 9] of the same molecule?
A: 154 µM

Q: And the “free Lys concentration, kidney homogenate” value [1, 9]?
A: 1101 µM

Q: And the “free Lys concentration, liver homogenate” value [1, 9]?
A: 391 µM

Q: And the “free Lys concentration, lung homogenate” value [1, 9]?
A: 245 µM

Q: And the “free Arg concentration, heart homogenate” value [1, 10]?
A: 92 µM

Q: And the “free Arg concentration, kidney homogenate” value [1, 10]?
A: 767 µM

Q: And the “free Arg concentration, liver homogenate” value [1, 10]?
A: 29.8 µM

Q: What about the “free Arg concentration, lung homogenate” value [1, 10] of the same molecule?
A: 230 µM

Q: What about the “free Lys concentration, heart homogenate” value [1, 10] of the same molecule?
A: 140 µM

Q: What about the “free Lys concentration, kidney homogenate” value [1, 10] of the same molecule?
A: 1138 µM

Q: And the “free Lys concentration, liver homogenate” value [1, 10]?
A: 497 µM

Q: What about the “free Lys concentration, lung homogenate” value [1, 10] of the same molecule?
A: 386 µM

Q: And the “free Arg concentration, heart homogenate” value [1, 11]?
A: 51.3 µM

Q: What about the “free Arg concentration, kidney homogenate” value [1, 11] of the same molecule?
A: 262 µM

Q: What about the “free Arg concentration, liver homogenate” value [1, 11] of the same molecule?
A: 10.1 µM

Q: What about the “free Arg concentration, lung homogenate” value [1, 11] of the same molecule?
A: 136 µM

Q: And the “free Lys concentration, heart homogenate” value [1, 11]?
A: 153 µM

Q: What about the “free Lys concentration, kidney homogenate” value [1, 11] of the same molecule?
A: 503 µM

Q: What about the “free Lys concentration, liver homogenate” value [1, 11] of the same molecule?
A: 328 µM

Q: What about the “free Lys concentration, lung homogenate” value [1, 11] of the same molecule?
A: 391 µM

Q: And the “free Arg concentration, kidney homogenate” value [1, 12]?
A: 56.3 µM

Q: What about the “free Arg concentration, liver homogenate” value [1, 12] of the same molecule?
A: 15 µM

Q: What about the “free Arg concentration, lung homogenate” value [1, 12] of the same molecule?
A: 233 µM

Q: What about the “free Lys concentration, kidney homogenate” value [1, 12] of the same molecule?
A: 145 µM

Q: And the “free Lys concentration, liver homogenate” value [1, 12]?
A: 451 µM

Q: What about the “free Lys concentration, lung homogenate” value [1, 12] of the same molecule?
A: 169 µM

Q: What about the “increase in free GAA in the kidney” value ([1]; after i.p. hArg, Figure 5) of the same molecule?
A: ~100 fold

Q: What about the “effect on global arginine bioavailability ratio (GABR)” value ([1]; all organs, data not shown) of the same molecule?
A: independent of the hArg dose

Q: What about the infarct size [2, 13] of the same molecule?
A: decreased infarct sizes

Q: What about the neurological scores [2, 13] of the same molecule?
A: improved neurological scores

Q: What about the hArg plasma concentration ([2]; oral hArg, C57BL6 mice, versus vehicle-treated) of the same molecule?
A: 0.20 ± 0.02 µM

Q: What about the effects on cognition ([3]; healthy humans) of the same molecule?
A: did not reveal any appreciable effects on cognition

Q: What about the “increase of plasma Lys concentration compared to placebo” value ([3]; healthy young volunteers) of the same molecule?
A: about 8%

Q: What about the “pulse wave velocity, augmentation index, flow-mediated vasodilatation, corticospinal and cortical excitability” value ([3]; healthy young volunteers) of the same molecule?
A: without changes

Q: What about the “PUT/SPD molar ratio, heart” value (polyamine catabolism) of the same molecule?
A: 1.5

Q: And the “PUT/SPD molar ratio, kidney” value (polyamine catabolism)?
A: 0.86

Q: What about the “PUT/SPD molar ratio, liver” value (polyamine catabolism) of the same molecule?
A: 0.12

Q: And the “PUT/SPD molar ratio, lung” value (polyamine catabolism)?
A: 0.83

Q: What about the “substrate quality for arginase” value (arginase) of the same molecule?
A: poor substrate
